Experimental data from patent publication EP1946754A1, “THERAPEUTIC AGENT FOR ULCERATIVE COLITIS AND/OR CROHN'S DISEASE” (Yamamoto, Keiko, priority 2005, dated 2007).

What was measured:
[1] = system: dextran sodium sulfate (DSS)-induced ulcerative colitis model in the rat; experiment: Rat model of DSS-induced ulcerative colitis, 7-day repetitive intrarectal administration (Example 1); assay type: in vivo, SD rats; conditions: 7 days; for colon contraction: DSS rat (Figure 2); for Hb / Ht / RBC / WBC: hematological examination, i.r., DSS rat
Description: The therapeutic effect of YY-1 was investigated with the 7-day repetitive intrarectal administration using a dextran sodium sulfate (DSS)-induced ulcerative colitis model in the rat (Cancer Research, 61, 2424-2428, 2001). To generate the rat model of DSS-induced ulcerative colitis, a 3% aqueous DSS solution was ingested ad libitum by SD rats (male, age: 7 weeks) purchased from Charles River Laboratories Japan Inc., and animals presenting bloody stools were used as the rat model of DSS-induced ulcerative colitis.
The negative control group received 0.5% aqueous CMC-Na solution (vehicle) by intrarectal administration, while the positive control group received 100 mg/kg/day 5-aminosalicylic acid (5-ASA, purchased from Aldrich Chemical Company) dissolved in 0.5% aqueous CMC-Na solution by intrarectal administration. For YY-1, the compound was combined with 0.5% aqueous CMC-Na solution by means of a vortex mixing and sonication to form a suspension, and was administered intrarectally at 20 mg/kg/day (low dose group), 100 mg/kg/day (intermediate dose group), and 500 mg/kg/day (high dose group). Each group contained 8 SD rats, and a 1% aqueous DSS solution was ingested ad libitum during the test period.

[2] = system: dextran sodium sulfate (DSS)-induced ulcerative colitis model in the mouse; experiment: Mouse model of DSS-induced ulcerative colitis, 7-day repetitive intrarectal administration, 5.0% DSS during test period (Example 2); assay type: in vivo, c57BL/6J mice; conditions: 7 days; for body weight gain: P < 0.05 (Figure 4); for symptom alleviation: P < 0.05 (Figure 5); for colon contraction: P < 0.05 (Figure 6)
Description: (§1) The therapeutic effect of YY-1 was investigated with the 7-day repetitive intrarectal administration using a dextran sodium sulfate (DSS)-induced ulcerative colitis model in the mouse. To generate the mouse model of DSS-induced ulcerative colitis, a 9.0% aqueous DSS solution was ingested ad libitum for 7 days by c57BL/6J (male, age: 8 weeks) purchased from CLEA Japan, Inc., and animals presenting body weight loss, bloody stool, and/or diarrhea were used as the mouse model of DSS-induced ulcerative colitis.
The negative control group received 0.5% aqueous CMC-Na solution by intrarectal administration, while the positive control group received 100 mg/kg/day 5-aminosalicylic acid (5-ASA, purchased from Aldrich Chemical Company) dissolved in 0.5% aqueous CMC-Na solution by intrarectal administration. For YY-1, the compound was combined with 0.5% aqueous CMC-Na solution by means of an ultrasound mixer under ice cooling to form a suspension, and was administered intrarectally at 100 mg/kg/day or 500 mg/kg/day. Each group contained 8 c57BL/6J mice, and a 5.0% aqueous DSS solution was ingested ad libitum during the test period (Figure 3).

[3] = system: dextran sodium sulfate (DSS)-induced ulcerative colitis model in the mouse; experiment: Mouse model of DSS-induced ulcerative colitis, 7-day repetitive intrarectal administration, 9.0% DSS during test period (Example 3); assay type: in vivo, c57BL/6J mice; conditions: 500 mg/kg/day intrarectal, 7 days
Description: as §1
The negative control group received 0.5% aqueous CMC-Na solution by intrarectal administration. For YY-1, the compound was combined with 0.5% aqueous CMC-Na solution by means of an ultrasound mixer under ice cooling to prepare a suspension, and was administered intrarectally at 500 mg/kg/day. Each group contained 8 c57BL/6J mice, and a 9.0% aqueous DSS solution was ingested ad libitum during the test period (Figure 7).

CC/C=C\C/C=C\C/C=C\C/C=C\C/C=C\C=C\C(O)CCC(=O)O (stereo not shown) [YY-1, (5E,7Z,10Z,13Z,16Z,19Z)-4-hydroxy-5,7,10,13,16,19-docosahexaenoic acid]
colon contraction ([1]; 100 mg/kg/day intrarectal): significant improvement | area of erosion in the mucous membrane of the colon ([1]; 500 mg/kg/day intrarectal, DSS rat (Figure 1)): significant reduction | colon contraction ([1]; 500 mg/kg/day intrarectal): significant improvement | Hb ([1]; 20 mg/kg/day): 11 ± 1.5 g/dL | Ht ([1]; 20 mg/kg/day): 35.5 ± 4.6% | RBC ([1]; 20 mg/kg/day): 519 ± 80 x 10^4/µL | WBC ([1]; 20 mg/kg/day): 136 ± 34 x 10^2/µL | Hb ([1]; 100 mg/kg/day): 12.2 ± 0.9 g/dL | Ht ([1]; 100 mg/kg/day): 41.5 ± 3.2% | RBC ([1]; 100 mg/kg/day): 605 ± 51 x 10^4/µL | WBC ([1]; 100 mg/kg/day): 120 ± 13 x 10^2/µL | Hb ([1]; 500 mg/kg/day): 13.8 ± 0.3 g/dL | Ht ([1]; 500 mg/kg/day): 45.7 ± 1.1% | RBC ([1]; 500 mg/kg/day): 670 ± 20 x 10^4/µL | WBC ([1]; 500 mg/kg/day): 138 ± 14 x 10^2/µL | body weight gain ([2]; 100 mg/kg/day intrarectal): significant improvement | symptom alleviation ([2]; 100 mg/kg/day intrarectal): significant improvement | colon contraction ([2]; 100 mg/kg/day intrarectal): significant improvement | body weight gain ([2]; 500 mg/kg/day intrarectal): significant improvement | symptom alleviation ([2]; 500 mg/kg/day intrarectal): significant improvement | colon contraction ([2]; 500 mg/kg/day intrarectal): significant improvement | colon contraction ([3]; P < 0.01 (Figure 10)): significant improvement | body weight gain ([3]; P < 0.05 (Figure 8)): significant improvement | symptom alleviation ([3]; P < 0.05 (Figure 9)): significant improvement

Nc1ccc(O)c(C(=O)O)c1 [5-ASA, 5-aminosalicylic acid, reference compound]
Hb ([1]; 100 mg/kg/day): 13.3 ± 0.4 g/dL | Ht ([1]; 100 mg/kg/day): 41.7 ± 1.1% | RBC ([1]; 100 mg/kg/day): 633 ± 27 x 10^4/µL | WBC ([1]; 100 mg/kg/day): 126 ± 20 x 10^2/µL
